Each structure is given as a SMILES string. Bounds are passed on as bounds.

T1 sequence (Q8NEB9 whole entry): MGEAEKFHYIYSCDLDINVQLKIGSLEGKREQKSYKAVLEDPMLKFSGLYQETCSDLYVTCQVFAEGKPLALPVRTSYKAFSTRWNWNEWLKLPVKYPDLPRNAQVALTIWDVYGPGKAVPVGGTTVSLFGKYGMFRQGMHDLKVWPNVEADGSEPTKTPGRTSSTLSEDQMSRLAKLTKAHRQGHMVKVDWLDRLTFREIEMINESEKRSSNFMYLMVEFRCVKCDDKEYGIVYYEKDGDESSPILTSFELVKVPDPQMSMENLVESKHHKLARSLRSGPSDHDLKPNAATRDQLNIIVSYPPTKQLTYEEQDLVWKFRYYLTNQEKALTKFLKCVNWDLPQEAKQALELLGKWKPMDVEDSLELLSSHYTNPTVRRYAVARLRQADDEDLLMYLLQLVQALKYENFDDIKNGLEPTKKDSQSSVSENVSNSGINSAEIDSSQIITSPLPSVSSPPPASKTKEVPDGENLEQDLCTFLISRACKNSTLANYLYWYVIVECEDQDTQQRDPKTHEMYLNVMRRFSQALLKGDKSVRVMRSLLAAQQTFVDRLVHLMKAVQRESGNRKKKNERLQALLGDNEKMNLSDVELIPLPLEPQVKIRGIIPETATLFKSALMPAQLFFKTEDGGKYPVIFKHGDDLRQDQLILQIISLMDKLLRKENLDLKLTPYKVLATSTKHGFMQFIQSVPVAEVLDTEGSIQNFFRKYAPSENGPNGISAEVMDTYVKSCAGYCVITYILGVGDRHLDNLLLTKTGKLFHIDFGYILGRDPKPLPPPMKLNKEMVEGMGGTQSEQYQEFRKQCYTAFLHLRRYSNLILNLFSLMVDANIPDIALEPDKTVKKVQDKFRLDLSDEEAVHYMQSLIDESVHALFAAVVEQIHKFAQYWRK

The assay concerns the target T1, recombinant Vps34 (Homo sapiens, UniProt Q8NEB9).
T1 construct: purchased Invitrogen PV5126
As to the kind of experiment: Phosphorylation of phosphatidylinositol (PI) by Vps34 in vitro, ADP detected by TR-FRET (HTRF Transcreener ADP). Format: biochemical. To be noted: 10 μM ATP, 55 μg/ml PI, approximately 3 nM Vps34, 1 hour at ambient temperature; absolute IC50, mean of two independent experiments; read-out: IC50 activity range.
With `C[C@@H]1COCCN1c1nc2n(c(=O)c1F)CCC(C)(C)N2Cc1ccon1` [Example 73, 3-Fluoro-9-isoxazol-3-ylmethyl-8,8-dimethyl-2-((R)-3-methyl-morpholin-4-yl)-6,7,8,9-tetrahydro-pyrimido[1,2-a]-pyrimidin-4-one], the IC50 (as a rule, the concentration that gives 50% inhibition) lay in the range of 10 to 100 nM.

For the molecule `C[C@@H]1COCCN1c1nc2n(c(=O)c1F)CCC(C)(C)N2Cc1ccnn1C(F)F` [Example 74, 9-(2-Difluoromethyl-2H-pyrazol-3-yl-methyl)-3-fluoro-8,8-dimethyl-2-((R)-3-methylmorpholin-4-yl)-6,7,8,9-tetrahydro-pyrimido[1,2-a]-pyrimidin-4-one], the IC50 is 10 to 100 nM.

On to `C[C@@H]1COCCN1c1cc(=O)n2c(n1)N(c1cccc(F)c1)[C@H](C(F)(F)F)CC2` [Example 75, (S)-9-(3-Fluoro-phenyl)-2-((R)-3-methylmorpholin-4-yl)-8-trifluoromethyl-6,7,8,9-tetrahydro-pyrimido[1,2-a]-pyrimidin-4-one], for which the IC50 is less than 10 nM.

As for `C[C@@H]1COCCN1c1cc(=O)n2c(n1)N(Cc1ccnc(Cl)c1)[C@H](C(F)(F)F)CC2` [Example 76, (S)-9-(2-Chloro-pyridin-4-ylmethyl)-2-((R)-3-methyl-morpholin-4-yl)-8-trifluoromethyl-6,7,8,9-tetrahydro-pyrimido[1,2-a]-pyrimidin-4-one], the IC50 is less than 10 nM.

Regarding `C[C@@H]1COCCN1c1cc(=O)n2c(n1)N(Cc1ncco1)[C@H](C(F)(F)F)CC2` [Example 77, (S)-2-((R)-3-Methyl-morpholin-4-yl)-9-oxazol-2-ylmethyl-8-trifluoromethyl-6,7,8,9-tetrahydro-pyrimido[1,2-a]-pyrimidin-4-one], the IC50 was in the range of 10 to 100 nM.

For `C[C@@H]1COCCN1c1cc(=O)n2c(n1)N(Cc1cscn1)[C@H](C(F)(F)F)CC2` [Example 78, (S)-2-((R)-3-Methyl-morpholin-4-yl)-9-thiazol-4-ylmethyl-8-trifluoromethyl-6,7,8,9-tetrahydro-pyrimido[1,2-a]-pyrimidin-4-one], the IC50 was less than 10 nM.

Take `C[C@@H]1COCCN1c1cc(=O)n2c(n1)N(c1ccnc(Cl)c1)[C@H](C(F)(F)F)CC2` [Example 79, (S)-9-(2-Chloro-pyridin-4-yl)-2-((R)-3-methylmorpholin-4-yl)-8-trifluoromethyl-6,7,8,9-tetrahydro-pyrimido[1,2-a]-pyrimidin-4-one]: the IC50 is less than 10 nM.

For the molecule `COc1cc(N2c3nc(N4CCOC[C@H]4C)cc(=O)n3CC[C@H]2C(F)(F)F)ccn1` [Example 80, (S)-9-(2-Methoxy-pyridin-4-yl)-2-((R)-3-methylmorpholin-4-yl)-8-trifluoromethyl-6,7,8,9-tetrahydro-pyrimido[1,2-a]-pyrimidin-4-one], the IC50 is less than 10 nM.

As to `C[C@@H]1COCCN1c1cc(=O)n2c(n1)N(c1ccc(C(F)(F)F)nc1)[C@H](C(F)(F)F)CC2` [Example 81, (S)-2-((R)-3-Methyl-morpholin-4-yl)-8-trifluoromethyl-9-(6-trifluoromethylpyridin-3-yl)-6,7,8,9-tetrahydro-pyrimido[1,2-a]-pyrimidin-4-one], the IC50 was less than 10 nM.

`C[C@@H]1COCCN1c1cc(=O)n2c(n1)N(CCOCC(F)(F)F)[C@H](C(F)(F)F)CC2` [Example 82, (S)-2-((R)-3-Methyl-morpholin-4-yl)-9-[2-(2,2,2-trifluoro-ethoxy)ethyl]-8-trifluoromethyl-6,7,8,9-tetrahydro-pyrimido[1,2-a]-pyrimidin-4-one]: the IC50 was less than 10 nM.

For `Cc1ccc(N2c3nc(N4CCOC[C@H]4C)cc(=O)n3CC[C@H]2C(F)(F)F)cn1` [Example 83, (S)-2-((R)-3-Methyl-morpholin-4-yl)-9-(6-methylpyridin-3-yl)-8-trifluoromethyl-6,7,8,9-tetrahydro-pyrimido[1,2-a]-pyrimidin-4-one], the IC50 was less than 10 nM.

For `C[C@@H]1COCCN1c1cc(=O)n2c(n1)N(CC(C)(C)O)[C@H](C(F)(F)F)CC2` [Example 84, (S)-9-(2-Hydroxy-2-methylpropyl)-2-((R)-3-methylmorpholin-4-yl)-8-trifluoromethyl-6,7,8,9-tetrahydro-pyrimido[1,2-a]-pyrimidin-4-one], the IC50 was less than 10 nM.

On to `CC(C)Oc1ccc(N2c3nc(N4CCOC[C@H]4C)cc(=O)n3CC[C@H]2C(F)(F)F)cn1` [Example 85, (S)-9-(6-Isopropoxy-pyridin-3-yl)-2-((R)-3-methylmorpholin-4-yl)-8-trifluoromethyl-6,7,8,9-tetrahydro-pyrimido[1,2-a]-pyrimidin-4-one], for which the half-maximal inhibitory concentration (IC50) was less than 10 nM.

Consider `C[C@@H]1COCCN1c1cc(=O)n2c(n1)N(Cc1ccc(Cl)cn1)[C@H](C(F)(F)F)CC2` [Example 86, (S)-9-(5-Chloro-pyridin-2-ylmethyl)-2-((R)-3-methyl-morpholin-4-yl)-8-trifluoromethyl-6,7,8,9-tetrahydro-pyrimido[1,2-a]-pyrimidin-4-one], for which the IC50 is less than 10 nM.

Turning to `C[C@@H]1COCCN1c1cc(=O)n2c(n1)N(Cc1cncs1)[C@H](C(F)(F)F)CC2` [Example 87, (S)-2-((R)-3-Methyl-morpholin-4-yl)-9-thiazol-5-ylmethyl-8-trifluoromethyl-6,7,8,9-tetrahydro-pyrimido[1,2-a]-pyrimidin-4-one], the IC50 is less than 10 nM.

As for `C[C@@H]1COCCN1c1cc(=O)n2c(n1)N(c1ccc(C3CCC3)nc1)[C@H](C(F)(F)F)CC2` [Example 88, (S)-9-(6-Cyclobutyl-pyridin-3-yl)-2-((R)-3-methylmorpholin-4-yl)-8-trifluoromethyl-6,7,8,9-tetrahydro-pyrimido[1,2-a]-pyrimidin-4-one], the 50% inhibitory concentration (IC50) was less than 10 nM.

For `C[C@@H]1COCCN1c1cc(=O)n2c(n1)N(c1ccnc(C3CC3)c1)[C@H](C(F)(F)F)CC2` [Example 89, (S)-9-(2-Cyclopropyl-pyridin-4-yl)-2-((R)-3-methylmorpholin-4-yl)-8-trifluoromethyl-6,7,8,9-tetrahydro-pyrimido[1,2-a]-pyrimidin-4-one], the IC50 is less than 10 nM.

As to `COCCN1c2nc(N3CCOC[C@H]3C)cc(=O)n2CC[C@H]1C(F)(F)F` [Example 90, (S)-9-(2-Methoxy-ethyl)-2-((R)-3-methyl-morpholin-4-yl)-8-trifluoromethyl-6,7,8,9-tetrahydro-pyrimido[1,2-a]-pyrimidin-4-one], the half-inhibitory concentration (IC50) was less than 10 nM.

Take `C[C@@H]1COCCN1c1cc(=O)n2c(n1)N(Cc1cnco1)[C@H](C(F)(F)F)CC2` [Example 91, (S)-2-((R)-3-Methyl-morpholin-4-yl)-9-oxazol-5-ylmethyl-8-trifluoromethyl-6,7,8,9-tetrahydro-pyrimido[1,2-a]-pyrimidin-4-one]: the IC50 was less than 10 nM.

As for `C[C@@H]1COCCN1c1cc(=O)n2c(n1)N(Cc1ccc(F)cn1)[C@H](C(F)(F)F)CC2` [Example 92, (S)-9-(5-Fluoropyridin-2-ylmethyl)-2-((R)-3-methylmorpholin-4-yl)-8-trifluoromethyl-6,7,8,9-tetrahydro-pyrimido[1,2-a]-pyrimidin-4-one], the IC50 is less than 10 nM.

For `Cc1nc(CN2c3nc(N4CCOC[C@H]4C)cc(=O)n3CC[C@H]2C(F)(F)F)c(C)o1` [Example 93, (S)-9-(2,5-Dimethyl-oxazol-4-ylmethyl)-2-((R)-3-methyl-morpholin-4-yl)-8-trifluoromethyl-6,7,8,9-tetrahydro-pyrimido[1,2-a]-pyrimidin-4-one], the IC50 is less than 10 nM.

Turning to `C[C@@H]1COCCN1c1cc(=O)n2c(n1)N(Cc1cncc(F)c1)[C@H](C(F)(F)F)CC2` [Example 94, (S)-9-(5-Fluoropyridin-3-ylmethyl)-2-((R)-3-methylmorpholin-4-yl)-8-trifluoromethyl-6,7,8,9-tetrahydro-pyrimido[1,2-a]-pyrimidin-4-one], the IC50 is less than 10 nM.

As for `Cc1nnc(CN2c3nc(N4CCOC[C@H]4C)cc(=O)n3CC[C@H]2C(F)(F)F)o1` [Example 96, (S)-2-((R)-3-Methyl-morpholin-4-yl)-9-(5-methyl-[1,3,4]oxadiazol-2-yl-methyl)-8-trifluoromethyl-6,7,8,9-tetrahydro-pyrimido[1,2-a]-pyrimidin-4-one], the IC50 is less than 10 nM.

Turning to `C[C@@H]1COCCN1c1nc2n(c(=O)c1F)CC[C@@H](C(F)(F)F)N2CC(=O)C(C)(C)C` [Example 97, (S)-9-(3,3-Dimethyl-2-oxobutyl)-3-fluoro-2-((R)-3-methyl-morpholin-4-yl)-8-trifluoromethyl-6,7,8,9-tetrahydro-pyrimido[1,2-a]-pyrimidin-4-one], the IC50 is less than 10 nM.

`C[C@@H]1COCCN1c1cc(=O)n2c(n1)N(Cc1ccc(Cl)s1)[C@H](C(F)(F)F)CC2` [Example 98, (S)-9-(5-Chloro-thiophen-2-ylmethyl)-2-((R)-3-methyl-morpholin-4-yl)-8-trifluoromethyl-6,7,8,9-tetrahydro-pyrimido[1,2-a]-pyrimidin-4-one]: the 50% inhibitory concentration (IC50) is less than 10 nM.

Turning to `C[C@@H]1COCCN1c1cc(=O)n2c(n1)N(CC(=O)c1ccccc1)[C@H](C(F)(F)F)CC2` [Example 99, (S)-2-((R)-3-Methyl-morpholin-4-yl)-9-(2-oxo-2-phenylethyl)-8-trifluoromethyl-6,7,8,9-tetrahydro-pyrimido[1,2-a]-pyrimidin-4-one], the IC50 was less than 10 nM.

As for `CO[C@H](CN1c2nc(N3CCOC[C@H]3C)cc(=O)n2CC[C@H]1C(F)(F)F)c1ccccc1` [Example 100, (S)-9-((S)-2-Methoxy-2-phenylethyl)-2-((R)-3-methylmorpholin-4-yl)-8-trifluoromethyl-6,7,8,9-tetrahydro-pyrimido[1,2-a]-pyrimidin-4-one], the IC50 is less than 10 nM.

For the molecule `Cc1cc(CN2c3nc(N4CCOC[C@H]4C)cc(=O)n3CC[C@H]2C(F)(F)F)on1` [Example 101, (S)-9-(3-Methyl-isoxazol-5-ylmethyl)-2-((R)-3-methyl-morpholin-4-yl)-8-trifluoromethyl-6,7,8,9-tetrahydro-pyrimido[1,2-a]-pyrimidin-4-one], the IC50 is less than 10 nM.

For the molecule `C[C@@H]1COCCN1c1cc(=O)n2c(n1)N(CC(=O)c1ccccn1)CC[C@@H]2C(F)(F)F` [Example 102, (R)-2-((R)-3-Methyl-morpholin-4-yl)-9-(2-oxo-2-pyridin-2-yl-ethyl)-6-trifluoromethyl-6,7,8,9-tetrahydro-pyrimido[1,2-a]-pyrimidin-4-one], the IC50 was less than 10 nM.

The values are drawn from patent US11739100B2, “2,3-dihydro-1h-imidazo{1,2-a}pyrimidin-5-one and this 1,2,3,4-tetrahydropyrimido{1,2-a}pyrimidin-6-one derivatives comprising a substituted morpholine, preparation thereof and pharmaceutical use thereof” (SANOFI, priority 2012, dated 2023).
